Results from patent publication US20250340551A1, “SMALL MOLECULE MODULATORS OF STAT6” (Gilead Sciences, Inc., priority 2024, published 2025).

Target: human STAT6 (Homo sapiens (Human), UniProt P42226)
Experiment: Surface plasmon resonance assay (Biacore 8K, binding to immobilized STAT6)
Settings: human STAT6 aa122-658, N-terminal His-tag, CM5 chip, 25° C.; geometric mean; read-out: STAT6 SPR Kd
Protocol: Biacore instruments from the 8K-series (Cytiva) were used, and measurements were performed at 25° C. Human STAT6 (truncated, aa122-658, with N-terminal His-tag, expressed in insect cells) was immobilized in the active flow cells on a CM5 chip using amine-coupling (default settings) at 10 μg/ml in 10 mM acetate buffer pH 5.5, at a contact time of 120-420 sec. and a flow rate of 10 μl/min. Reference flow cells were deactivated using blank immobilization. PBS-P+ (Cytiva) supplemented with 2% DMSO was used as running buffer, and solvent correction was applied. Compounds were tested by multi-cycle kinetics injections using a contact time of 60 sec., dissociation time of up to 300 sec., and a flow rate of 30 μl/min.
Solvent-corrected, reference-subtracted and blank-corrected data was processed and binding isotherms were fitted according to a single report point from each sensorgram (Standard: Late binding (5 sec. before injection end); alternative: Earlier report point according to binding profile). Data fitting was done both with unfixed Rmax and with Rmax fixed to the theoretical value* assuming 1:1 binding to allow processing of data from both weak and strong binders as well as to evaluate binding stoichiometry.
Positive controls were run at the beginning, during, and at the end of the screen to evaluate surface activity.

human STAT6, sequence (P42226 122-658): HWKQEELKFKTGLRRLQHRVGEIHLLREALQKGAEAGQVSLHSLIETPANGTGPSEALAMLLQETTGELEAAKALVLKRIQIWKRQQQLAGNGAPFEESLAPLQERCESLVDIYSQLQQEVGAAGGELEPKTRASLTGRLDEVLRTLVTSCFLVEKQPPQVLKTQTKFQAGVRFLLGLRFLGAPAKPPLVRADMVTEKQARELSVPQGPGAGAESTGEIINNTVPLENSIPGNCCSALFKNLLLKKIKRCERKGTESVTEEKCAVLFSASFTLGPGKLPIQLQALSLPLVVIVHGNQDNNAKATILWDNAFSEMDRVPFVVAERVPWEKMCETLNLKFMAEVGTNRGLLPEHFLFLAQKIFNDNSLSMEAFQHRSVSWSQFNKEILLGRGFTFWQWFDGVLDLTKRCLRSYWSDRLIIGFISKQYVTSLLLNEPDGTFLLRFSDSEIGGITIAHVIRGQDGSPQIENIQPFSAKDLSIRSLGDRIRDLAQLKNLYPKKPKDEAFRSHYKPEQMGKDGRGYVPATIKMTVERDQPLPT

Compound | Kd [nM]
CN(C)C(=O)c1ccc(C2CCN(Cc3cc4c(-c5cnc(N)c(C(F)(F)F)c5)ccnc4n3C)CC2)cc1 [Example 1k36, 4-[1-[[4-[6-Amino-5-(trifluoromethyl)-3-pyridyl]-1-methyl-pyrrolo[2,3-b]pyridin-2-yl]methyl]-4-piperidyl]-N,N-dimethyl-benzamide] | 1120
COc1c(N)ncc(-c2ccnc3c2cc(CN2CCC(c4ccc(C(=O)N(C)C)cc4)CC2)n3C)c1C [Example 1k19, 4-[1-[[4-(6-Amino-5-methoxy-4-methyl-3-pyridyl)-1-methyl-pyrrolo[2,3-b]pyridin-2-yl]methyl]-4-piperidyl]-N,N-dimethyl-benzamide] | 738
CC(=O)Nc1ccc(-c2ccnc3c2cc(CN2CCC(c4ccc(C(=O)N(C)C)cc4)CC2)n3C)c(C)n1 [Example 1k40, 4-[1-[[4-(6-Acetamido-2-methyl-3-pyridyl)-1-methyl-pyrrolo[2,3-b]pyridin-2-yl]methyl]-4-piperidyl]-N,N-dimethyl-benzamide] | 475
Cc1cc(N)cc(C)c1-c1ccnc2c1cc(CN1CCC(c3ccc(C(=O)N(C)C)cc3)CC1)n2C [Example 1k32, 4-[1-[[4-(4-Amino-2,6-dimethyl-phenyl)-1-methyl-pyrrolo[2,3-b]pyridin-2-yl]methyl]-4-piperidyl]-N,N-dimethyl-benzamide] | 1230
C[C@H](c1cc2c(-c3ccc(N)cn3)ccnc2n1C)N1CCC(c2ccc(C(=O)N(C)C)cc2)CC1 [Example 1af16, (R)-4-(1-(1-(4-(5-aminopyridin-2-yl)-1-methyl-1H-pyrrolo[2,3-b]pyridin-2-yl)ethyl)piperidin-4-yl)-N,N-dimethylbenzamide] | 15.5
CCOC(=O)c1nc(N)ccc1-c1ccnc2c1cc(CN1CCC(c3ccc(C(=O)N(C)C)cc3)CC1)n2C [Example 1k35, Ethyl 6-amino-3-[2-[[4-[4-(dimethylcarbamoyl)phenyl]-1-piperidyl]methyl]-1-methyl-pyrrolo[2,3-b]pyridin-4-yl]pyridine-2-carboxylate] | 11
C[C@@H](c1cc2c(-c3ccc(N)nc3)ccnc2n1C)N1CCC(c2ccc(C(=O)N(C)C)cc2)CC1 [Example 1af11, (S)-4-(1-(1-(4-(6-amino-pyridin-3-yl)-1-methyl-1H-pyrrolo[2,3-b]pyridin-2-yl)ethyl)-piperidin-4-yl)-N,N-dimethyl-benzamide] | 102
CN(C)C(=O)c1ccc(C2CCN(Cc3cc4c(-c5ccc(N)c(O)n5)ccnc4n3C)CC2)cc1 [Example 1ad1, 4-(1-((4-(5-Amino-6-hydroxypyridin-2-yl)-1-methyl-1H-pyrrolo[2,3-b]pyridin-2-yl)methyl)piperidin-4-yl)-N,N-dimethylbenzamide] | 79.4
C[C@@H](c1cc2c(-c3ccc(N)nc3C#N)ccnc2n1C)N1CCC(c2ccc(C(=O)N(C)C)cc2)CC1 [Example 1af13, (S)-4-(1-(1-(4-(6-amino-2-cyanopyridin-3-yl)-1-methyl-1H-pyrrolo[2,3-b]pyridin-2-yl)ethyl)piperidin-4-yl)-N,N-dimethylbenzamide] | 691
CN(C)C(=O)c1ccc(C2CCN(Cc3cc4c(-c5cnc(N)cc5CO)ccnc4n3C)CC2)cc1 [Example 1k49, 4-[1-[[4-[6-Amino-4-(hydroxymethyl)-3-pyridyl]-1-methyl-pyrrolo[2,3-b]pyridin-2-yl]methyl]-4-piperidyl]-N,N-dimethyl-benzamide] | 148
CN(C)C(=O)c1ccc(C2CCN(Cc3cc4c(-c5cnc(N)c(CO)c5)ccnc4n3C)CC2)cc1 [Example 1k34, 4-[1-[[4-[6-Amino-5-(hydroxymethyl)-3-pyridyl]-1-methyl-pyrrolo[2,3-b]pyridin-2-yl]methyl]-4-piperidyl]-N,N-dimethyl-benzamide] | 245
[2H]C([2H])([2H])NC(=O)c1ccc(C2CCN(Cc3cc4c(-c5ccc(N)nc5C#N)ccnc4n3C)CC2)cc1 [Example 1ae15, 4-[1-[[4-(6-Amino-2-cyano-3-pyridyl)-1-methyl-pyrrolo[2,3-b]pyridin-2-yl]methyl]-4-piperidyl]-N-(trideuteriomethyl)benzamide] | 201
CN(C)C(=O)c1ccc(C2CCN(Cc3cc4c(-c5cnc(N)c(C(=O)O)c5)ccnc4n3C)CC2)cc1 [Example 1k9, 2-Amino-5-[2-[[4-[4-(dimethylcarbamoyl)phenyl]-1-piperidyl]methyl]-1-methyl-pyrrolo[2,3-b]pyridin-4-yl]pyridine-3-carboxylic acid] | 144
CN(C)C(=O)c1ccc(C2CCN(Cc3cc4c(-c5cnc(N)c(OC(F)(F)F)c5)ccnc4n3C)CC2)cc1 [Example 1k48, 4-[1-[[4-[6-Amino-5-(trifluoromethoxy)-3-pyridyl]-1-methyl-pyrrolo[2,3-b]pyridin-2-yl]methyl]-4-piperidyl]-N,N-dimethyl-benzamide] | 8230

Next, values leading:

Kd [nM] | Compound
57.3 | COCCNc1ccc(-c2ccnc3c2cc(CN2CCC(c4ccc(C(=O)N(C)C)cc4)CC2)n3C)cn1 [Example 1k59, 4-[1-[[4-[6-(2-Methoxyethylamino)-3-pyridyl]-1-methyl-pyrrolo[2,3-b]pyridin-2-yl]methyl]-4-piperidyl]-N,N-dimethyl-benzamide]
557 | CN(C)C(=O)c1ccc(C2CCN(Cc3cc4c(-c5cnc(N)c(O)c5)ccnc4n3C)CC2)cc1 [Example 1k50, 4-[1-[[4-(6-Amino-5-hydroxy-3-pyridyl)-1-methyl-pyrrolo[2,3-b]pyridin-2-yl]methyl]-4-piperidyl]-N,N-dimethyl-benzamide]
999 | CN(C)C(=O)c1ccc(C2CCN(Cc3cc4c(-c5ccc(N)c(C(F)(F)F)n5)ccnc4n3C)CC2)cc1 [Example 1k76, 4-[1-[[4-[5-Amino-6-(trifluoromethyl)-2-pyridyl]-1-methyl-pyrrolo[2,3-b]pyridin-2-yl]methyl]-4-piperidyl]-N,N-dimethyl-benzamide]
104 | CN(C)C(=O)c1ccc(C2CCN(Cc3cc4c(-c5cnc(N)nn5)ccnc4n3C)CC2)cc1 [Example 1k54, 4-[1-[[4-(3-Amino-1,2,4-triazin-6-yl)-1-methyl-pyrrolo[2,3-b]pyridin-2-yl]methyl]-4-piperidyl]-N,N-dimethyl-benzamide]
1010 | CN(C)C(=O)c1ccc(C2CCN(Cc3cc4c(-c5c(C(F)F)cc(N)cc5C(F)F)ccnc4n3C)CC2)cc1 [Example 1k55, 4-[1-[[4-[4-Amino-2,6-bis(difluoromethyl)phenyl]-1-methyl-pyrrolo[2,3-b]pyridin-2-yl]methyl]-4-piperidyl]-N,N-dimethyl-benzamide]
51.9 | [2H]C([2H])([2H])N(C(=O)c1ccc(C2CCN(Cc3cc4c(-c5ccc(NC)cn5)ccnc4n3C)CC2)cc1)C([2H])([2H])[2H] [Example 1k70, 4-[1-[[1-methyl-4-[5-(methylamino)-2-pyridyl]pyrrolo[2,3-b]pyridin-2-yl]methyl]-4-piperidyl]-N,N-bis(trideuteriomethyl)benzamide]
148 | CNc1ccc(-c2ccnc3c2cc(CN2CCC(c4ccc(C(=O)N(C)C)cn4)CC2)n3C)nn1 [Example 1p5, N,N-Dimethyl-6-[1-[[1-methyl-4-[6-(methylamino)pyridazin-3-yl]pyrrolo[2,3-b]pyridin-2-yl]methyl]-4-piperidyl]pyridine-3-carboxamide]
40.6 | CNc1ccc(-c2ccnc3c2cc(CN2CC[C@@H](c4ccc(C(=O)N(C)C)cc4)[C@@H](F)C2)n3C)cn1 (stereo in doubt) [Example 1s27, N,N-Dimethyl-4-[(3R,4S)-3-fluoro-1-[[1-methyl-4-[6-(methylamino)-3-pyridyl]pyrrolo[2,3-b]pyridin-2-yl]methyl]-4-piperidyl]benzamide]
22.3 | CN(C)C(=O)c1ccc(C2CCN(Cc3cc4c(-c5ccc(N)nc5)ccnc4n3C)CC2)cc1 [Example 1z19, 4-(1-((4-(6-aminopyridin-3-yl)-1-methyl-1H-pyrrolo[2,3-b]pyridin-2-yl)methyl)piperidin-4-yl)-N,N-dimethylbenzamide]
61.6 | CNc1ccc(-c2ccnc3c2cc(CN2CCC(F)(c4ccc(C(=O)N(C)C)cc4)CC2)n3C)cn1 [Example 1s26, 4-[4-Fluoro-1-[[1-methyl-4-[6-(methylamino)-3-pyridyl]pyrrolo[2,3-b]pyridin-2-yl]methyl]-4-piperidyl]-N,N-dimethyl-benzamide]
35.9 | CN(C)C(=O)c1ccc(C2CCN(Cc3cc4c(-c5ccc(N)c(-c6nnn[nH]6)c5)ccnc4n3C)CC2)cc1 [Example 1k60, 4-[1-[[4-[4-Amino-3-(2H-tetrazol-5-yl)phenyl]-1-methyl-pyrrolo[2,3-b]pyridin-2-yl]methyl]-4-piperidyl]-N,N-dimethyl-benzamide]
962 | CN(C)C(=O)c1ccc(C2CCN(Cc3cc4c(-c5cnc(N)cc5C#N)ccnc4n3C)CC2)cc1 [Example 1k53, 4-[1-[[4-(6-Amino-4-cyano-3-pyridyl)-1-methyl-pyrrolo[2,3-b]pyridin-2-yl]methyl]-4-piperidyl]-N,N-dimethyl-benzamide]
8920 | CNc1ccc(-c2ccnc3c2cc(CN2CCN(c4ccc(C(=O)N(C)C)cn4)CC2)n3C)nc1 [Example 1n9, N,N-Dimethyl-6-[4-[[1-methyl-4-[5-(methylamino)-2-pyridyl]pyrrolo[2,3-b]pyridin-2-yl]methyl]piperazin-1-yl]pyridine-3-carboxamide]
